Source: PubChem BioAssay (NCI)
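96-well plates; 48 h exposure; 5 concentrations. Endpoints by linear interpolation between flanking doses. Not reached: highest tested concentration assigned. GI50 marks 50% less growth. TGI: concentration producing complete growth inhibition.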

Columns and labels:
Assay in all cases: growth of human tumour cells (NCI), 48 h; in the data active = GI50 below about 0.43 µM; inactive = the rest
[1] = system: NCI-H460 lung
[2] = system: HL-60(TB) leukemia
[3] = system: OVCAR-5 ovarian
[4] = system: UO-31 renal
[5] = system: OVCAR-3 ovarian
[6] = system: LOX IMVI melanoma
[7] = system: RXF 393 renal
[8] = system: MOLT-4 leukemia
[9] = system: SW-620 colon
[10] = system: SNB-75 CNS
[11] = system: DU-145 prostate
[12] = system: MALME-3M melanoma
[13] = system: A498 renal
[14] = system: HCT-116 colon
[15] = system: NCI-H522 lung
[16] = system: NCI-H23 lung
[17] = system: A549 NSCLC
[18] = system: SNB-19 CNS
[19] = system: CAKI-1 renal
[20] = system: BT-549 breast
[21] = system: NCI-H226 lung
[22] = system: MCF7 breast
[23] = system: KM12 colon
[24] = system: 786-0 renal
[25] = system: MDA-MB-435
[26] = system: SK-OV-3 ovarian
[27] = system: HS 578T breast
[28] = system: COLO 205 colon
[29] = system: NCI/ADR-RES ovarian
[30] = system: TK-10 renal
[31] = system: SN12C renal
[32] = system: M14 melanoma
[33] = system: HCT-15 colon
[34] = system: SF-295 CNS
[35] = system: U251 CNS
[36] = system: HOP-62 NSCLC
[37] = system: HCC-2998 colon
[38] = system: T-47D breast
[39] = system: SK-MEL-28 melanoma
[40] = system: RPMI-8226 leukemia
[41] = system: SR leukemia
[42] = system: HT29 colon
[43] = system: IGROV1 ovarian
[44] = system: UACC-62 melanoma
[45] = system: OVCAR-8 ovarian
[46] = system: SF-539 CNS
[47] = system: SK-MEL-5 melanoma
[48] = system: UACC-257 melanoma
[49] = system: MDA-MB-231 breast
[50] = system: SF-268 CNS
[51] = system: CCRF-CEM leukemia
[52] = system: PC-3 prostate
[53] = system: ACHN renal
[54] = system: K-562 leukemia
[55] = system: OVCAR-4 ovarian
[56] = system: HOP-92 NSCLC
[57] = system: SK-MEL-2 melanoma
[58] = system: EKVX NSCLC

CCc1ccccc1NC(=O)c1sc2nc3c(cc2c1N)C(=O)CCC3
> 88 µM: TGI [34]
3.15 µM: TGI [46]
75.7 µM: TGI [26]
inactive: GI50 [3] 1.96 µM | GI50 [4] 14.8 µM | GI50 [6] 0.669 µM | GI50 [8] 5.29 µM | GI50 [11] 0.589 µM | GI50 [12] 26.2 µM | GI50 [14] 0.512 µM | GI50 [15] 0.502 µM | GI50 [16] 0.711 µM | GI50 [17] 0.656 µM | GI50 [18] 0.801 µM | GI50 [19] 0.504 µM | GI50 [20] 27.4 µM | GI50 [21] 23.2 µM | GI50 [23] 0.432 µM | GI50 [24] 0.722 µM | GI50 [26] 0.537 µM | GI50 [29] 0.433 µM | GI50 [30] 23.2 µM | GI50 [31] 0.729 µM | GI50 [35] 0.608 µM | GI50 [36] 0.587 µM | GI50 [37] 1.67 µM | GI50 [38] 0.533 µM | GI50 [39] 3.71 µM | GI50 [40] 0.782 µM | GI50 [43] 15.5 µM | GI50 [44] 0.439 µM | GI50 [45] 2.88 µM | GI50 [48] 27.6 µM | GI50 [49] 1.49 µM | GI50 [50] 11.9 µM | GI50 [52] 0.461 µM | GI50 [53] 1.17 µM | GI50 [55] 1.54 µM
0.336 µM: TGI [25]
> 74.2 µM: TGI [24]
> 100 µM: TGI [1] | TGI [3] | TGI [4] | TGI [6] | TGI [8] | TGI [9] | TGI [11] | TGI [12] | TGI [14] | TGI [15] | TGI [16] | TGI [17] | TGI [18] | TGI [19] | TGI [20] | TGI [21] | TGI [22] | TGI [23] | TGI [27] | TGI [30] | TGI [31] | TGI [32] | TGI [33] | TGI [37] | TGI [39] | TGI [41] | TGI [43] | TGI [44] | TGI [45] | TGI [47] | TGI [48] | TGI [49] | TGI [50] | TGI [51] | TGI [52] | TGI [53] | TGI [54] | TGI [55]
41.1 µM: TGI [29]
43.7 µM: TGI [2]
0.852 µM: TGI [7]
1.06 µM: TGI [28]
active: GI50 [1] 0.367 µM | GI50 [2] 0.326 µM | GI50 [5] 0.383 µM | GI50 [7] 0.191 µM | GI50 [9] 0.329 µM | GI50 [10] 0.346 µM | GI50 [13] 0.22 µM | GI50 [22] 0.328 µM | GI50 [25] 0.0598 µM | GI50 [27] 0.398 µM | GI50 [28] 0.291 µM | GI50 [32] 0.404 µM | GI50 [33] 0.406 µM | GI50 [34] 0.283 µM | GI50 [41] 0.406 µM | GI50 [42] 0.372 µM | GI50 [46] 0.373 µM | GI50 [47] 0.329 µM | GI50 [51] 0.352 µM | GI50 [54] 0.275 µM
55.1 µM: TGI [10]
51.7 µM: TGI [35]
29.5 µM: TGI [42]
5.52 µM: TGI [13]
16 µM: TGI [5]
> 30.9 µM: TGI [40]
> 68.5 µM: TGI [36]
> 79.8 µM: TGI [38]

COc1cc2c3c(n(CCCN(C)C)c(=O)c2cc1OC)-c1ccccc1C3=O
24.7 µM: TGI [7] | TGI [11]
> 71.3 µM: TGI [18]
66 µM: TGI [9]
> 53.4 µM: TGI [22]
16.6 µM: TGI [14] | TGI [42]
19.1 µM: TGI [44]
19.2 µM: TGI [6]
inactive: GI50 [1] 3.51 µM | GI50 [3] > 91.6 µM | GI50 [4] 16.7 µM | GI50 [5] 5.83 µM | GI50 [6] 4.66 µM | GI50 [7] 6.68 µM | GI50 [56] 23.2 µM | GI50 [8] 0.463 µM | GI50 [9] 2.11 µM | GI50 [10] 6.9 µM | GI50 [11] 5.05 µM | GI50 [12] 7.38 µM | GI50 [13] 24.7 µM | GI50 [14] 3.71 µM | GI50 [15] 5.59 µM | GI50 [16] 10.6 µM | GI50 [17] 10.3 µM | GI50 [18] 8.28 µM | GI50 [19] 12.7 µM | GI50 [20] 21.4 µM | GI50 [21] 18.6 µM | GI50 [22] 2.34 µM | GI50 [23] 5.61 µM | GI50 [24] 16 µM | GI50 [25] 19.1 µM | GI50 [26] 29.4 µM | GI50 [27] 99.7 µM | GI50 [28] 1.04 µM | GI50 [57] > 100 µM | GI50 [29] 5.94 µM | GI50 [30] 38 µM | GI50 [31] 7.16 µM | GI50 [32] 3.83 µM | GI50 [33] 17.8 µM | GI50 [34] 1.26 µM | GI50 [58] > 43.7 µM | GI50 [35] 12.2 µM | GI50 [36] 3.57 µM | GI50 [37] 3.17 µM | GI50 [38] 30.8 µM | GI50 [39] 8.5 µM | GI50 [42] 0.738 µM | GI50 [43] 1.61 µM | GI50 [44] 1.48 µM | GI50 [45] 7.87 µM | GI50 [46] 4.47 µM | GI50 [47] 10.1 µM | GI50 [48] > 100 µM | GI50 [49] 10.6 µM | GI50 [50] 7.69 µM | GI50 [52] 9.02 µM | GI50 [53] 6.9 µM | GI50 [54] 4.39 µM | GI50 [55] 6.68 µM
1.73 µM: TGI [8] | TGI [51]
1.82 µM: TGI [41]
20.8 µM: TGI [53]
73.9 µM: TGI [24]
18.6 µM: TGI [37]
> 49.1 µM: TGI [29]
47 µM: TGI [47]
23.6 µM: TGI [49]
active: GI50 [40] 0.238 µM | GI50 [41] 0.184 µM | GI50 [51] 0.24 µM
> 48.7 µM: TGI [52]
24.4 µM: TGI [54]
> 72 µM: TGI [16]
97.7 µM: TGI [4]
> 73.9 µM: TGI [13]
53.5 µM: TGI [55]
> 100 µM: TGI [3] | TGI [56] | TGI [10] | TGI [12] | TGI [15] | TGI [20] | TGI [21] | TGI [25] | TGI [26] | TGI [27] | TGI [28] | TGI [57] | TGI [30] | TGI [38] | TGI [45] | TGI [48] | TGI [50]
> 88.2 µM: TGI [32]
1.53 µM: TGI [40]
> 55.9 µM: TGI [35]
72.3 µM: TGI [31]
28.7 µM: TGI [46]
> 89.8 µM: TGI [36]
41.9 µM: TGI [23]
> 51.7 µM: TGI [43]
> 77.9 µM: TGI [19]
> 53.3 µM: TGI [33]
> 65 µM: TGI [39]
> 54.6 µM: TGI [17]
54.8 µM: TGI [5]
> 72.7 µM: TGI [58]
21.6 µM: TGI [1]
